# Test results reported in article PMC4381330, “Identification of a novel selective agonist of PPARγ with no promotion of adipogenesis and less inhibition of osteoblastogenesis” (Scientific Reports, 2015).
# Assays:
# PPARγ Y473A = target: T1, PPARγ Y473A (Homo sapiens, UniProt P37231, Y501A); assay: Y473A assay (PPARγ reporter gene assay with Tyr473 of pBIND-PPARγ-LBD mutated into alanine); format: cell-based
# T1 construct: expressed in transfected cells; host or cells: HEK293T
# T1 sequence (P37231 172-476 isoform P37231-2 Y473A): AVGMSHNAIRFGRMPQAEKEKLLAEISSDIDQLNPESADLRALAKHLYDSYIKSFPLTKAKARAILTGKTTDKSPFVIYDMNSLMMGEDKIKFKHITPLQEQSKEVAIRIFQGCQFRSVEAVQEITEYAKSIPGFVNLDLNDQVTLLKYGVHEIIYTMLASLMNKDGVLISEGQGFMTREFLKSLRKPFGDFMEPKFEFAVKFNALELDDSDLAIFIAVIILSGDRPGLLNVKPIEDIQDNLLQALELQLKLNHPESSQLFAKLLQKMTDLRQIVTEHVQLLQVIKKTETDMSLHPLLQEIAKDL
# Procedure: All chemicals were purchased from Sigma-Aldrich (St. Louis, MO, USA). All medium and serum were obtained from Gibco (Invitrogen). The wild-type gene of human PPARγ-LBD (amino acids 172–476) was obtained by PCR and cloned into pBIND vector (Promega). Mutations in pBIND-PPARγ-LBD were created by site-directed mutagenesis using the Fast Mutagenesis System (TransGen Biotech, Beijing, China).
# The determination of nuclear receptor activation was performed as previously. Briefly, HEK293T cells were transfected with GAL4-pGL4-luc reporter plasmid and pBIND-PPARγ-LBD expression plasmid using Lipofectamine 2000 (Invitrogen) for 6 h before treatment with compounds for 20–24 h. Activity was determined by the Luciferase Assay System (Promega).
# Supplementary Figure 1: Workflow of virtual screening and the procedure used for selecting hits whose bioactivity was experimentally tested. We developed a virtual screening workflow by Discovery Studio 4.0 software to identify selective agonists of PPARγ. The key steps of this workflow is the two pharmacophore models. One is the antipharmacophore model which excludes compounds whose structure are similar to known full agonists, the other one is the pharmacophore model which identifies selective agonists. Biological assays were performed after virtual steps to further screen leads. […]
# human PPARγ LBD = target: T2, human PPARγ LBD (Homo sapiens, UniProt P37231); assay: LanthaScreen TR-FRET PPARγ competitive binding assay; conditions: purified human PPARγ LBD
# T2 construct: incubated with GST-fused human PPARγ-LBD, terbium-labeled anti-GST antibody; purchased Invitrogen
# T2 sequence (P37231 238-503 limits assumed): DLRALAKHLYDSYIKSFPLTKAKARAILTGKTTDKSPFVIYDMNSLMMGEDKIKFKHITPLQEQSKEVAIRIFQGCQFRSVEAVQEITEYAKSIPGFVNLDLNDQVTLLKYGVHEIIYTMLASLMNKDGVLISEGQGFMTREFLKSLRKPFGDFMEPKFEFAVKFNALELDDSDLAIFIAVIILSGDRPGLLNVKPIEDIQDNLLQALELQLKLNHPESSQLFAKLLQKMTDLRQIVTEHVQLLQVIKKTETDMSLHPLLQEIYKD
# Procedure: The LanthaScreen time-resolved fluorescence resonance energy transfer (TR-FRET) PPARγ competitive binding assay (Invitrogen) was performed according to the manufacturer's protocol. […] The FRET signal was measured by excitation at 340 nm and emission at 520 nm for fluorescein and 495 nm for terbium. In this assay, test compounds' binding to PPARγ LBD competed with Pan-PPAR Green and replaced it, resulting in a decrease of signal. The ability of binding to the PPARγ-LBD was measured by the decrease of the 520 nm/495 nm ratio. Graphs were plotted as fold changes of the FRET signal for compounds over the DMSO-only control.
# [1] = system: PPARγ target genes in differentiating 3T3-L1 cells; assay: Expression of adipogenesis-related and PPARγ-responsive genes in differentiating 3T3-L1 adipocytes (qPCR); format: cell-based, mouse
# Procedure: 3T3-L1 preadipocytes were grown to confluency in DMEM containing 10% CS. At 2 days post-confluency, the cells were stimulated with differentiation medium (DMEM containing 10% FBS, 10 μg/mL insulin, 1 μM dexamethasone, and 0.5 mM IBMX) for 48 h. Then, the cells were exposed in post-differentiation-maintaining medium (DMEM containing 10% FBS and 10 μg/mL insulin) for a further 48 h, which was replaced with expansion medium (DMEM containing 10% FBS) every 2 days after then. Compounds were added to the post-differentiation and expansion medium. At day 4, the cells were harvested for RNA preparation. At Day 8, the cells were fixed with 10% formaldehyde and stained with Oil red O solution. After washing with water, photos were taken. Solubilized dye was quantified at 550 nm. In addition, total triglyceride of the cells was measured by a total TG measurement kit (Applygene, China). Experiments were performed at least three times.
# (§1) Total RNA was extracted using TRIzol reagent (Invitrogen). First-strand cDNA was synthesized from the total RNA using a reverse transcriptional kit (TransGen). Quantitative PCR with SYBR Green (Roche Diagnostics, Lewes, UK) was performed on a Stratagene MX3000P real-time PCR system (Agilent). Melting curves were obtained, and the specificity of PCR products was checked on agarose gels. Relative mRNA expression was determined by the ΔΔCt method and normalized to GAPDH mRNA levels.
# [2] = system: osteoblast marker genes in MC3T3-E1 cells; assay: Expression of osteoblast marker genes in MC3T3-E1 cells (qPCR); format: cell-based
# Procedure: MC3T3-E1 cells were cultured in α-MEM to confluency in 24-well plates and then cultured in differentiation medium (α-MEM supplemented with 200 μM ascorbic acid and 10 mM β-glycerophosphate) for 7, 14, and 21 days, which was replaced every 3 days. The cells were treated with DMSO, rosiglitazone, or F12016 at the start of differentiation. At day 8, 15 and 22, total RNA was isolated, and real-time PCR was performed as described below.
# as §1
substance,measurement,setting,value
"2-[2-(1, 2-dimethyl-1H-indol-3-yl)-2-oxo-acetylamino]-benzamide [Compound F12016]",EC50,PPARγ Y473A,5.21 µM
same,PPARγ Y473A (RGZ %),PPARγ Y473A; activation relative to rosiglitazone (RGZ),29.12%
same,IC50,human PPARγ LBD,36.3 µM
same,Ki,human PPARγ LBD,13 µM
same,AdipQ mRNA expression,[1],increased AdipQ mRNA expression
same,mRNA levels of 11β-HSD1,[1],similarly decreased the mRNA levels
same,transcription of Pdk4,[1],decreased transcription
same,expression of fatty acid synthase (Fasn),[1]; both compounds to a similar extent,upregulated expression
same,"expression of adipogenesis-related genes (CEBP/α, PEPCK, FABP4, CD36, Gyk, Elvol3, Cox7a1)",[1]; compared with rosiglitazone,induced much less expression
same,induction of lipoprotein lipase (LPL),[1]; compared with rosiglitazone,less than that induced by rosiglitazone
same,expression of Alp and Col1,[2]; 7 days,increased expressions of Alp and Col1
same,expression of RANKL,"[2]; 7 days, rosiglitazone 1 μM, compared with control",not significantly changed
same,expression of Ibsp and Bglap,"[2]; Ibsp 14 days, Bglap 21 days",did not show any significant reductions
